Laboratory results as given in ChEMBL document CHEMBL1909046, “DrugMatrix in vitro pharmacology data”.

Columns and labels:
[1] = target: T1, Alpha-2C adrenergic receptor (Homo sapiens, UniProt P18825); test: DRUGMATRIX: Adrenergic Alpha-2C radioligand binding (ligand: [3H] MK-912); format: cell membranes, Sf9, Membrane; conditions: sf9
T1 sequence (P18825 whole entry): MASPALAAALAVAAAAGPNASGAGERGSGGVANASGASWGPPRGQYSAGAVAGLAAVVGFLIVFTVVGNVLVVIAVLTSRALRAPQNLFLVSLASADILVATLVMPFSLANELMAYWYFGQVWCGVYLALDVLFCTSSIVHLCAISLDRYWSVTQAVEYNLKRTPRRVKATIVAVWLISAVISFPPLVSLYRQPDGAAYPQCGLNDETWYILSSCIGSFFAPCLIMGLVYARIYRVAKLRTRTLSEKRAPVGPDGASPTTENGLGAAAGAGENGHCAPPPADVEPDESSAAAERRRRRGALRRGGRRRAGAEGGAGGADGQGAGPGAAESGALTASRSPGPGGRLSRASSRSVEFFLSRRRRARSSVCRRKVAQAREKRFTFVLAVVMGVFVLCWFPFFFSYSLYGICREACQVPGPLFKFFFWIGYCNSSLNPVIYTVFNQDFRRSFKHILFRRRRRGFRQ

[2] = DRUGMATRIX: Sigma2 radioligand binding (ligand: [3H] Ifenprodil); format: cell membranes, Rattus norvegicus, Wistar, Brain, Membrane; conditions: Not Active = under 50% inhibition at 10 µM
[3] = DRUGMATRIX: Phosphodiesterase PDE3 enzyme inhibition (substrate: [3H]cAMP + cAMP); format: tissue-based, Homo sapiens; conditions: platelet; Not Active = under 50% inhibition at 10 µM
[4] = DRUGMATRIX: Phosphodiesterase PDE4 enzyme inhibition (substrate: [3H]cAMP + cAMP); conditions: u-937, Not Active = under 50% inhibition at 10 µM
Adenosine receptor A1 = target: T2, Adenosine receptor A1 (Homo sapiens, UniProt P30542); format: cell membranes, CHO, Membrane;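 further: radioligand binding assay at the adenosine A1 receptor, with DPCPX serving as the labelled ligand; in other assays of this panel Not Active means under 50% inhibition at 10 µM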
T2 sequence (P30542 whole entry): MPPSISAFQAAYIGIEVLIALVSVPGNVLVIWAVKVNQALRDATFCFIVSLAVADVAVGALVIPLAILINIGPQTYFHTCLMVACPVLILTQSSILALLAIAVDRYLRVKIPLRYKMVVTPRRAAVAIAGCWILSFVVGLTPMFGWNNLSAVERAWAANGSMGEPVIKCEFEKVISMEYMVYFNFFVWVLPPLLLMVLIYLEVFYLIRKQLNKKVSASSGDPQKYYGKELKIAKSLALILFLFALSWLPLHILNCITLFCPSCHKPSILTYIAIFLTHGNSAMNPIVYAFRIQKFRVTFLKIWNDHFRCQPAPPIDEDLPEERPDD

SMILES	IC50 [1]	IC50 [2]	Ki [2]	IC50 [3]	Ki [3]	IC50 [4]	Ki [4]	IC50 (Adenosine receptor A1; cho)	IC50 ([4]; read-out: IC50) [µM]	IC50 (Adenosine receptor A1; read-out: IC50) [µM]	Ki (Adenosine receptor A1; read-out: Ki) [µM]
Cc1c(OCC(F)(F)F)ccnc1C[S+]([O-])c1nc2ccccc2[nH]1 (configuration not stated) [LANSOPRAZOLE]	Not Active	Not Active	Not Active	Not Active	Not Active	Not Active	Not Active	Not Active	–	–	–
O=c1cc(N2CCOCC2)oc2c(-c3ccccc3)cccc12 [LY-294002]	Not Active	Not Active	Not Active	Not Active	Not Active	–	–	Not Active	10.4	–	–
COc1ccc2[nH]cc(CCNC(C)=O)c2c1 [MELATONIN]	Not Active	Not Active	Not Active	Not Active	Not Active	Not Active	Not Active	Not Active	–	–	–
NC(=O)C[S+]([O-])C(c1ccccc1)c1ccccc1 (configuration not stated) [MODAFINIL]	Not Active	Not Active	Not Active	Not Active	Not Active	Not Active	Not Active	Not Active	–	–	–
CCN(CC)CCOCCC1=CCC2CC1C2(C)C (configuration not stated) [MYRTECAINE]	Not Active	Not Active	Not Active	Not Active	Not Active	Not Active	Not Active	Not Active	–	–	–
O=C(O)c1cccnc1Nc1cccc(C(F)(F)F)c1 [NIFLUMIC ACID]	Not Active	Not Active	Not Active	Not Active	Not Active	Not Active	Not Active	Not Active	–	–	–
O=C(N/N=C/c1ccc([N+](=O)[O-])o1)c1cc([N+](=O)[O-])cc([N+](=O)[O-])c1O [NIFURSOL]	Not Active	Not Active	Not Active	Not Active	Not Active	Not Active	Not Active	Not Active	–	–	–
COC(=O)Nc1nc2ccc(C(=O)c3cccs3)cc2[nH]1 [NOCODAZOLE]	Not Active	Not Active	Not Active	Not Active	Not Active	Not Active	Not Active	–	–	50.3	29.4
C#CC1(O)CC[C@H]2[C@@H]3CCC4=CC(=O)CC[C@@H]4[C@H]3CC[C@@]21CC (some centres not stated) [NORGESTREL]	Not Active	Not Active	Not Active	Not Active	Not Active	Not Active	Not Active	Not Active	–	–	–
COC(=O)Nc1nc2ccc([S+]([O-])c3ccccc3)cc2[nH]1 (configuration not stated) [OXFENDAZOLE]	Not Active	Not Active	Not Active	Not Active	Not Active	Not Active	Not Active	Not Active	–	–	–
CC(=O)O[C@H]1C(=O)[C@@]2(C)[C@H]([C@H](OC(=O)c3ccccc3)[C@]3(O)C[C@H](OC(=O)[C@H](O)[C@@H](NC(=O)c4ccccc4)c4ccccc4)C(C)=C1C3(C)C)[C@]1(OC(C)=O)CO[C@@H]1C[C@@H]2O [PACLITAXEL]	Not Active	Not Active	Not Active	Not Active	Not Active	Not Active	Not Active	Not Active	–	–	–
C[n+]1ccc(-c2cc[n+](C)cc2)cc1.[Cl-].[Cl-] [PARAQUAT DICHLORIDE]	Not Active	Not Active	Not Active	Not Active	Not Active	Not Active	Not Active	Not Active	–	–	–
CC(C)NCC(O)COc1cccc2[nH]ccc12 (configuration not stated) [PINDOLOL]	Not Active	Not Active	Not Active	Not Active	Not Active	Not Active	Not Active	Not Active	–	–	–
CCn1cc(C(=O)O)c(=O)c2cnc(N3CCCC3)nc21 [PIROMIDIC ACID]	Not Active	Not Active	Not Active	Not Active	Not Active	Not Active	Not Active	Not Active	–	–	–
